Assays:
[1] = biological target: T1, Purine nucleoside phosphorylase (Bos taurus, UniProt P55859); assay: Binding affinity to calf recombinant PNP expressed in Escherichia coli BL21 (DE3) by fluorimetric titration analysis
T1 sequence (P55859 whole entry): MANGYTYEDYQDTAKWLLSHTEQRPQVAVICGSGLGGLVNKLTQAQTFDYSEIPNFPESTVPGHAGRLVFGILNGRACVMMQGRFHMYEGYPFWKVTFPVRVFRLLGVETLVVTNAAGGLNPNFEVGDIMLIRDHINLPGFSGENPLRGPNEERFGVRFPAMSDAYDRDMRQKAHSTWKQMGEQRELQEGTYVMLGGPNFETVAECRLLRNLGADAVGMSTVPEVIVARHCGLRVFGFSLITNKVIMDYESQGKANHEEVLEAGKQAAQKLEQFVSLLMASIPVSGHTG

[2] = biological target: T1, Purine nucleoside phosphorylase
[3] = biological target: T2, Purine nucleoside phosphorylase (Bos taurus, UniProt P55859, F200W)
T2 sequence (P55859 whole entry F200W): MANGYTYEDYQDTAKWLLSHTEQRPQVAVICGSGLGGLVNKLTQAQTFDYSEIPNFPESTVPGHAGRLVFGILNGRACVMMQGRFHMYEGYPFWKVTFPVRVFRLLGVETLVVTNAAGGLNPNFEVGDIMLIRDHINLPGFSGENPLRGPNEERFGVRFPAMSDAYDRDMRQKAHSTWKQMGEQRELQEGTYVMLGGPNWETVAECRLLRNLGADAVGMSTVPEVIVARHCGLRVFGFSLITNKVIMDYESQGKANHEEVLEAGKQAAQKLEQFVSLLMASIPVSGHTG
Description: Binding affinity to calf recombinant PNP Phe200Trp mutant expressed in Escherichia coli BL21 (DE3) by fluorimetric titration analysis

[4] = biological target: Purine nucleoside phosphorylase (Bos taurus, UniProt P55859, F159W); assay: Binding affinity to calf recombinant PNP Phe159Trp mutant expressed in Escherichia coli BL21 (DE3) by fluorimetric titration analysis
Chain of Purine nucleoside phosphorylase (Bos taurus, UniProt P55859, F159W) (P55859 whole entry F159W): as the sequence (P55859 whole entry F200W) above, with F159W, W200F counted along it

[5] = biological target: T3, Purine nucleoside phosphorylase (Bos taurus) (UniProt P55859)
T3 sequence (whole entry): T1 sequence (P55859 whole entry)
Description: Inhibition of bovine PNP using 7-methylguanosine as substrate by spectrophotometric based coupled assay

[6] = biological target: T2, Purine nucleoside phosphorylase; assay: Binding affinity to calf recombinant PNP Phe200Trp mutant expressed in Escherichia coli BL21 (DE3) by competitive binding fluorimetric analysis in presence of DFPP-DG
[7] = biological target: T1, Purine nucleoside phosphorylase; assay: Binding affinity to calf recombinant PNP expressed in Escherichia coli BL21 (DE3) by isothermal titration calorimetry/ fluorimetric titration analysis

| SMILES | Kd [2] [nM] | Kieq [5] [µM] | further results |
| --- | --- | --- | --- |
| Nc1nc2nc[nH]c2c(=O)[nH]1 [GUANINE] | 120 |  | Kd [1]: 160 nM; Kd [3]: 160 nM; Kd [4]: 3300 nM |
| Nc1nc2cc[nH]c2c(=O)[nH]1 | 160 | 7.4 | Kd [1]: 170 nM |
| O=c1[nH]cnc2nc[nH]c12 |  | 2.5 |  |
| O=c1[nH]cnc2c([C@@H]3N[C@H](CO)[C@@H](O)[C@H]3O)c[nH]c12 [FORODESINE] | 0.023 |  |  |
| C[C@@H](Cn1cnc2c(N)nc(N)nc21)OCP(=O)(O)O |  | 6 | Kd [6]: 860 nM |
| Nc1nc2[nH]cnc2c(=O)[nH]1 |  | 4 |  |
| Nc1nc2c(CNCCC(F)(F)P(=O)(O)O)c[nH]c2c(=O)[nH]1 |  | 0.0068 | Kd [7]: 3.6 nM |

Source: ChEMBL document CHEMBL2157872, “Trimeric purine nucleoside phosphorylase: exploring postulated one-third-of-the-sites binding in the transition state” (Bioorg Med Chem, 2012)
